The target of assay [1] is T1, 3-dehydroquinate dehydratase (Mycobacterium tuberculosis, UniProt P9WPX7).
T1 sequence (P9WPX7 whole entry): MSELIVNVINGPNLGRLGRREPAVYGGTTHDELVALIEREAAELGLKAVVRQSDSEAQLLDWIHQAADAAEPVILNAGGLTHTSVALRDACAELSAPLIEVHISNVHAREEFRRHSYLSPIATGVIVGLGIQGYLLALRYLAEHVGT
As to the kind of experiment: Competitive reversible inhibition of Mycobacterium tuberculosis type 2 dehydroquinase expressed in Escherichia coli BL21 (DE3) cells assessed as enone-carboxylate chromophore of 3-dehydroshikimate formation using 3-dehydroquinate as substrate preincubated with enzyme for 3 mins prior to substrate addition by UV spectrophotometric assay.

The target of assay [2] is T2, 3-dehydroquinate dehydratase (Streptomyces coelicolor (strain ATCC BAA-471 / A3(2) / M145), UniProt P15474).
T2 sequence (P15474 whole entry): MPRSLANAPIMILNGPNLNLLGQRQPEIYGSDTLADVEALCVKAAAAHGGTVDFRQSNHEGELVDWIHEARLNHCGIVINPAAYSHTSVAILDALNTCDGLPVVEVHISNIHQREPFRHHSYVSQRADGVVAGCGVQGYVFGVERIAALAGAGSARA
As to the kind of experiment: Competitive reversible inhibition of Strepotomyces coelicolor type 2 dehydroquinase expressed in Escherichia coli BL21 (DE3) cells assessed as enone-carboxylate chromophore of 3-dehydroshikimate formation using 3-dehydroquinate as substrate preincubated with enzyme for 3 mins prior to substrate addition by UV spectrophotometric assay.

For assay [3], the target named is T3, 3-dehydroquinate dehydratase (Helicobacter pylori (strain ATCC 700392 / 26695) (Campylobacterpylori), UniProt Q48255).
T3 sequence (Q48255 whole entry): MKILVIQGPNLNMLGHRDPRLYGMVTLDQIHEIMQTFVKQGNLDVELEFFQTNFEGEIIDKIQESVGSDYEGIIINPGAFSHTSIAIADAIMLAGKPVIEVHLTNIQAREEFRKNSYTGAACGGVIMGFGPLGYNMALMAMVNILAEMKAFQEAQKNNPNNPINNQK
Nature of the assay: Competitive reversible inhibition of Helicobacter pylori type 2 dehydroquinase expressed in Escherichia coli BL21 (DE3) cells assessed as enone-carboxylate chromophore of 3-dehydroshikimate formation using 3-dehydroquinate as substrate preincubated with enzyme for 3 mins prior to substrate addition by UV spectrophotometric assay.

pKi: −log10 of the molar value.

For orientation: pKi means the Ki on a negative log10 scale, so that one unit is a factor of ten. In the case of `O=C(O)[C@]1(O)C=C(c2cn(-c3ccccc3)nn2)[C@@H](O)[C@H](O)C1`, the pKi was 7.41 in assay [1], 8.24 in assay [2] and 6.65 in assay [3].

Turning to `O=C(O)[C@]1(O)C=C(c2cn(-c3ccc(F)cc3)nn2)[C@@H](O)[C@H](O)C1`, the values for the negative-log Ki (pKi) in assay [1], in assay [2] and in assay [3] were 6.81, 7.54 and 6.25, respectively.

Take `O=C(O)[C@]1(O)C=C(c2cn(-c3cccc([N+](=O)[O-])c3)nn2)[C@@H](O)[C@H](O)C1`: the values for the pKi in assay [1], in assay [2] and in assay [3] were 6.64, 7.11 and 6.27, respectively.

For `O=C(O)c1cccc(-n2cc(C3=C[C@@](O)(C(=O)O)C[C@@H](O)[C@@H]3O)nn2)c1`, the pKi in assay [1] was 5.51; in assay [2], 5.76; in assay [3], 5.24.

As for `O=C(O)[C@]1(O)C=C(c2cn(-c3ccccc3O)nn2)[C@@H](O)[C@H](O)C1`, the pKi is 6.48 in assay [1], 7.32 in assay [2] and 6.80 in assay [3].

Take `O=C(O)[C@]1(O)C=C(c2cn(-c3cccnc3)nn2)[C@@H](O)[C@H](O)C1`: the figures for the pKi in assay [1], in assay [2] and in assay [3] were 6.87, 8.24 and 6.43, respectively.

For `O=C(O)[C@]1(O)C=C(c2cn(Cc3ccco3)nn2)[C@@H](O)[C@H](O)C1`, the negative-log Ki (pKi) in assay [1] is 5.67; in assay [2], 6.66; in assay [3], 5.66.

On to `O=C(O)[C@]1(O)C=C(c2cn(Cc3cccs3)nn2)[C@@H](O)[C@H](O)C1`, for which the pKi is 5.80 in assay [1], 7.14 in assay [2] and 6.03 in assay [3].

Values taken from ChEMBL document CHEMBL3217657, “Rapid assembly of potent type II dehydroquinase inhibitors viaClick chemistry” (Medchemcomm, 2010).
